From ChEMBL document CHEMBL1132713, “Emerging molecular approaches to pain therapy” (J Med Chem, 1999) come the findings set out here.

Experiment [1] has as its target Delta-type opioid receptor (Homo sapiens, UniProt P41143). Kind of experiment: Opioid receptor delta 1 agonist activity was determined. The format is functional.
A further experiment addresses Proteasome. Put plainly: Inhibitory activity against 26S proteasome degradation of IkB. The experiment is classed as subcellular.

One may read the Ki as a measure of affinity in units of concentration, obtained from inhibition or displacement. High values mean lower affinity, low ones higher affinity.

Delta-type opioid receptor, sequence (P41143 whole entry): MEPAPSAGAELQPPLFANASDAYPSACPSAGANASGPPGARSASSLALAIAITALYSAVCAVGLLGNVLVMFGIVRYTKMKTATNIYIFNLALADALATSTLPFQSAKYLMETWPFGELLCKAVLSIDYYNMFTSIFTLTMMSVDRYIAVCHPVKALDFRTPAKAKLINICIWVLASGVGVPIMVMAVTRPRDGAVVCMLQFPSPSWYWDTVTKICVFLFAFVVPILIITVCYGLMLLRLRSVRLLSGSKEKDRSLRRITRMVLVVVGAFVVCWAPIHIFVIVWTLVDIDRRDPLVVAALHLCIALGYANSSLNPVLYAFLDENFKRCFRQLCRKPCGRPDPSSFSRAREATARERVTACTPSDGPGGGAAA

The compound `COc1ccc2c3c1OC1C4NC(C(=O)OCC(C)C)=C(C)C4CC4C(C2)N(C)CCC341` (configuration not stated) gave an inhibition constant Ki in experiment [1] of 4.8 nM.
`CC(C)C[C@H](NC(=O)[C@@H](Cc1ccccc1)NC(=O)c1ccccc1)B(O)O`: at Proteasome, the Ki stood at 0.6 nM.
